From patent US8557864B2, “Agent having neurotrophic factor-like activity” (Nagoya Industrial Science Research Institute, priority 2007, dated 2013)

What was measured:
Format in all cases: in vivo
[1] = Measurement of weights of mice before and after stress; conditions: 3 weeks with stress
Excerpt: A weight of a mouse before stress was subtracted from the weight of the mouse immediately after administering the compound 8 as well as stress for 3 weeks to obtain a weight gap (g).

[2] = test system: mice under chronic mild stress; assay: Tail suspension test after completion of stress
Method: A site of 1 cm from the tip of the tail of a mouse was grasped by a hand, being apart from a floor from 10 cm, and an immobility time in suspension for 6 minutes was measured for 2 hours. Since the immobility time prolongs when the mouse has a depressive symptom (condition), a level of the depressive symptom (condition) can be evaluated from the length of the immobility time. FIGS. 6 and 7 show the results.
Example 2 is a behavior test in which the compound 8 was administered to a mouse as well as stress was applied and a suppression effect of the compound 8 on depressive and anxiety symptoms of the mouse was examined. On the other hand, the present example is a behavior test in which only stress was applied for 3 weeks without administering the compound 8 and stress was completed and a therapeutic effect of the compound 8 on depressive and anxiety symptoms of a mouse after removing stress was examined. Stress was applied to a mouse in the same manner as in Example 2. […]

[3] = Measurement of weights of mice after completion of stress; conditions: 500 μg/kg for 1 week after completion of stress
Excerpt: A weight of a mouse before stress was subtracted from of the weight of the mouse immediately after completion of stress for 3 weeks without administering the compound 8 and the weight of the mouse after administering the compound 8 for 1 week after completion of stress, respectively, to obtain weight gaps (g). FIGS. 29 and 30 show the results. Although doses are described in FIG. 29, the compound 8 was not administered as described above, and mice corresponding to each of the administration groups administered with the compound 8 for 1 week after completion of stress are only shown.

[4] = test system: mice under chronic mild stress; assay: Tail suspension test comparing compound 8 and fluvoxamine after chronic mild stress; conditions: Exp. 2 (1 week after stress); compound 8 500 μg/kg, fluvoxamine 1000 μg/kg intraperitoneally once per day
Method: 7-week-old male ddY strain mice fed in one cage for 4 mice were first subjected to forced swimming for 15 minutes in the same manner as stress in Example 2 (behavior test of mice under stress) (1) described in the paragraph [0063] in the specification. Then, stress for 1 week using 3 kinds of cages was regarded as 1 cycle, and the stress was applied for 3 cycles (3 weeks) and chronic mild stress (CMS) was applied. The compound 8 and fluvoxamine were administered to mice immediately after stress in Exp. 1, 1 week after stress in Exp. 2, and 2 weeks after stress in Exp. 3, respectively, and tail suspension tests were carried out on the respective test groups. In each test group, the compound 8 was adjusted in concentration so as to have each of the doses of […] and fluvoxamine was adjusted in concentration so as to have a dose of 1000 μg/kg, by dissolving in 0.1% DMSO, and each dose of the compound 8 and fluvoxamine were intraperitoneally injected to mice once per day from the time immediately after stress. Further, to 7-week-old male ddY strain mice fed in one cage for 4 mice without stress, the compound 8 and fluvoxamine were administered to carry out the tail suspension tests in the same manner as the stressed mice. FIG. 31 show the result. A significance test was performed in a Student's t-test (*). […] “DAEE” denotes the compound 8 and “Flu” denotes fluvoxamine.

In the case of `CCCCCCC/C=C/C(=O)OCC` [Compound 8, trans-2-decenoic acid ethyl ester], the “weight gap, stressed vs non-stressed example” value ([1]; 500 μg/kg administration group) is reported as “no significant difference”, the “ratio of weight decrease in stressed examples compared to control (PBS)” value ([1]; compound 8 administration groups) is reported as “less” and the “immobility time, stressed vs non-stressed example” value ([2]; 500 μg/kg, 1 week-administration groups after completion of stress) is reported as “no significant difference”. For the same compound, the “immobility time, stressed vs non-stressed example” value ([2]; all administration examples, 2 week-administration groups after completion of stress) was “no significant difference”, the “weight gap, stressed vs non-stressed example” value [3] was “no significant difference” and the “effect on depressive symptom (immobility time)” value [4] was “had an effect”.
